≈ marks a conversion by molar mass, not a printed value.
Columns and labels:
Streptococcus pneumoniae [1] = test: microbe, parasite or virus in culture; details: Staphylococcus aureus, ATCC 49619
Streptococcus pneumoniae [2] = test: microbe, parasite or virus in culture; details: Staphylococcus aureus, BSP2443
[3] = Peak free concentration at 750 mg/24 hrs regimen in vitro PK model; type: ADME
Streptococcus pneumoniae [4] = test: fAUC/MIC ratio of Streptococcus pneumoniae BSP-2443 at 875 mg
[5] = Peak free concentration at 843.5 mg/24 hrs regimen in vitro PK model; type: ADME
Streptococcus pneumoniae [6] = test: microbe, parasite or virus in culture; details: Staphylococcus aureus, BSP2443; remark: listed apart in the source
Streptococcus pneumoniae [7] = test: microbe, parasite or virus in culture; details: Staphylococcus aureus, ATCC 49619; remark: listed apart in the source
[8] = Peak free concentration at 875 mg/24 hrs regimen in vitro PK model; type: ADME
[9] = Peak free concentration at 1000 mg/24 hrs regimen in vitro PK model; type: ADME
Streptococcus pneumoniae [10] = test: fAUC/MIC ratio of Streptococcus pneumoniae ATCC 49610 at 1000 mg
[11] = Half life at 843.5 mg/24 hrs regimen in vitro PK model; type: ADME
[12] = Peak free concentration at 812.5 mg/24 hrs regimen in vitro PK model; type: ADME
Streptococcus pneumoniae [13] = test: fAUC/MIC ratio of Streptococcus pneumoniae BSP-2443 at 750 mg
Streptococcus pneumoniae [14] = test: fAUC/MIC ratio of Streptococcus pneumoniae ATCC 49610 at 812.5 mg
Streptococcus pneumoniae [15] = test: microbe, parasite or virus in culture; details: Staphylococcus aureus, BSP2443; remark: listed apart in the source
[16] = Peak free concentration at 500 mg/24 hrs regimen in vitro PK model; type: ADME
Streptococcus pneumoniae [17] = test: fAUC/MIC ratio of Streptococcus pneumoniae BSP-2443 at 1000 mg
[18] = Half life at 812.5 mg/24 hrs regimen in vitro PK model; type: ADME
[19] = Half life at 875 mg/24 hrs regimen in vitro PK model; type: ADME
Streptococcus pneumoniae [20] = test: microbe, parasite or virus in culture; details: Staphylococcus aureus, BSP2443, 96 h
Streptococcus pneumoniae [21] = test: microbe, parasite or virus in culture; details: Staphylococcus aureus, BSP2443; remark: listed apart in the source
[22] = Half life at 750 mg/24 hrs regimen in vitro PK model; type: ADME
Streptococcus pneumoniae [23] = test: microbe, parasite or virus in culture; details: Staphylococcus aureus, ATCC 49619; remark: listed apart in the source
Streptococcus pneumoniae [24] = test: fAUC/MIC ratio of Streptococcus pneumoniae ATCC 49610 at 875 mg
Streptococcus pneumoniae [25] = test: microbe, parasite or virus in culture; details: Staphylococcus aureus, ATCC 49619; remark: listed apart in the source
Streptococcus pneumoniae [26] = test: microbe, parasite or virus in culture; details: Staphylococcus aureus, ATCC 49619; remark: listed apart in the source
[27] = Half life at 500 mg/24 hrs regimen in vitro PK model; type: ADME
Streptococcus pneumoniae [28] = test: fAUC/MIC ratio of Streptococcus pneumoniae BSP-2443 at 937.5 mg
Streptococcus pneumoniae [29] = test: fAUC/MIC ratio of Streptococcus pneumoniae ATCC 49610 at 500 mg
Streptococcus pneumoniae [30] = test: microbe, parasite or virus in culture; details: Staphylococcus aureus, ATCC 49619, 24 h
Streptococcus pneumoniae [31] = test: microbe, parasite or virus in culture; details: Staphylococcus aureus, BSP2443; remark: listed apart in the source
Streptococcus pneumoniae [32] = test: microbe, parasite or virus in culture; details: Staphylococcus aureus, ATCC 49619; remark: listed apart in the source
Streptococcus pneumoniae [33] = test: Susceptibility of Streptococcus pneumoniae BSP-2443 by microdilution method; type: functional; details: BSP2443
Streptococcus pneumoniae [34] = test: microbe, parasite or virus in culture; details: Staphylococcus aureus, ATCC 49619, 24 h; remark: listed apart in the source
Streptococcus pneumoniae [35] = test: Susceptibility of Streptococcus pneumoniae ATCC 49619 by microdilution method; type: functional
Streptococcus pneumoniae [36] = test: fAUC/MIC ratio of Streptococcus pneumoniae BSP-2443 at 843.5 mg
Streptococcus pneumoniae [37] = test: fAUC/MIC ratio of Streptococcus pneumoniae ATCC 49610 at 843.5 mg
Streptococcus pneumoniae [38] = test: fAUC/MIC ratio of Streptococcus pneumoniae ATCC 49610 at 750 mg
Streptococcus pneumoniae [39] = test: microbe, parasite or virus in culture; details: Staphylococcus aureus, BSP2443; remark: listed apart in the source
Streptococcus pneumoniae [40] = test: microbe, parasite or virus in culture; details: Staphylococcus aureus, BSP2443, 96 h; remark: listed apart in the source
Streptococcus pneumoniae [41] = test: fAUC/MIC ratio of Streptococcus pneumoniae BSP-2443 at 812.5 mg
[42] = Half life at 1000 mg/24 hrs regimen in vitro PK model; type: ADME
Streptococcus pneumoniae [43] = test: microbe, parasite or virus in culture; details: Staphylococcus aureus, ATCC 49619, 24 h; remark: listed apart in the source
[44] = Peak free concentration at 200 mg/24 hrs regimen in vitro PK model; type: ADME
Streptococcus pneumoniae [45] = test: microbe, parasite or virus in culture; details: Staphylococcus aureus, BSP2443; remark: listed apart in the source
Streptococcus pneumoniae [46] = test: Bactericidal activity against Streptococcus pneumoniae BSP-2443 with parC S52G, N91D mutation and gyrA S114G mutation at fAUC/MIC of 24 after 72 hrs in pharmacodynamic model; details: BSP2443, 72 h
Streptococcus pneumoniae [47] = test: microbe, parasite or virus in culture; details: Staphylococcus aureus, BSP2443; remark: listed apart in the source
[48] = Peak free concentration at 100 mg/24 hrs regimen in vitro PK model; type: ADME
Streptococcus pneumoniae [49] = test: microbe, parasite or virus in culture; details: Staphylococcus aureus, BSP2443, 96 h; remark: listed apart in the source
Streptococcus pneumoniae [50] = test: microbe, parasite or virus in culture; details: Staphylococcus aureus, ATCC 49619; remark: listed apart in the source
Streptococcus pneumoniae [51] = test: microbe, parasite or virus in culture; details: Staphylococcus aureus, ATCC 49619; remark: listed apart in the source
Streptococcus pneumoniae [52] = test: microbe, parasite or virus in culture; details: Staphylococcus aureus, BSP2443, 72 h
[53] = Peak free concentration at 75 mg/24 hrs regimen in vitro PK model; type: ADME
Streptococcus pneumoniae [54] = test: microbe, parasite or virus in culture; details: Staphylococcus aureus, ATCC 49619; remark: listed apart in the source
[55] = Peak free concentration at 400 mg/24 hrs regimen in vitro PK model; type: ADME
Streptococcus pneumoniae [56] = test: microbe, parasite or virus in culture; details: Staphylococcus aureus, ATCC 49619; remark: listed apart in the source
Streptococcus pneumoniae [57] = test: microbe, parasite or virus in culture; details: Staphylococcus aureus, BSP2443; remark: listed apart in the source
[58] = Peak free concentration at 50 mg/24 hrs regimen in vitro PK model; type: ADME
Staphylococcus aureus [59] = test: Bactericidal activity against Staphylococcus aureus ATCC 49619 at fAUC/MIC of […] after 72 hrs in pharmacodynamic model; type: functional; details: ATCC 49619, 72 h
Staphylococcus aureus [60] = test: Bactericidal activity against Staphylococcus aureus ATCC 49619 at fAUC/MIC of […] after 96 hrs in pharmacodynamic model; type: functional; details: ATCC 49619, 96 h
Streptococcus pneumoniae [61] = test: microbe, parasite or virus in culture; details: Staphylococcus aureus, ATCC 49619; remark: listed apart in the source
Streptococcus pneumoniae [62] = test: Bactericidal activity against Streptococcus pneumoniae BSP-2443 with parC S52G, N91D mutation and gyrA S114G mutation at fAUC/MIC of 24 after 96 hrs in pharmacodynamic model; details: BSP2443, 96 h

C[C@H]1COc2c(N3CCN(C)CC3)c(F)cc3c(=O)c(C(=O)O)cn1c23.C[C@H]1COc2c(N3CCN(C)CC3)c(F)cc3c(=O)c(C(=O)O)cn1c23.O [LEVOFLOXACIN]
MIC (Streptococcus pneumoniae [1]): 0.75 µg/mL | MIC (Streptococcus pneumoniae [2]): 0.75 µg/mL | Activity [3]: 6.13 µg/mL | fAUC/MIC (Streptococcus pneumoniae [4]): 94 | Activity [5]: 7.09 µg/mL | MIC (Streptococcus pneumoniae [6]): 0.75 µg/mL | MIC (Streptococcus pneumoniae [7]): 0.75 µg/mL | Activity [8]: 7.19 µg/mL | Activity [9]: 8.75 µg/mL | fAUC/MIC (Streptococcus pneumoniae [10]): 114 | half-life [11]: 6.98 h | Activity [12]: 6.78 µg/mL | fAUC/MIC (Streptococcus pneumoniae [13]): 75 | fAUC/MIC (Streptococcus pneumoniae [14]): 82 | MIC (Streptococcus pneumoniae [15]): 0.75 µg/mL | Activity [16]: 4.1 µg/mL | fAUC/MIC (Streptococcus pneumoniae [17]): 117 | half-life [18]: 7.06 h | half-life [19]: 8.02 h | MIC (Streptococcus pneumoniae [20]): > 32 µg/mL | MIC (Streptococcus pneumoniae [21]): 0.75 µg/mL | half-life [22]: 7.52 h | MIC (Streptococcus pneumoniae [23]): > 32 µg/mL | fAUC/MIC (Streptococcus pneumoniae [24]): 97 | MIC (Streptococcus pneumoniae [25]): 0.75 µg/mL | MIC (Streptococcus pneumoniae [26]): > 32 µg/mL | half-life [27]: 8.01 h | fAUC/MIC (Streptococcus pneumoniae [28]): 104 | fAUC/MIC (Streptococcus pneumoniae [29]): 55 | MIC (Streptococcus pneumoniae [30]): 1.5 µg/mL | MIC (Streptococcus pneumoniae [31]): > 32 µg/mL | MIC (Streptococcus pneumoniae [32]): > 32 µg/mL | MIC (Streptococcus pneumoniae [33]): 0.025 µg/mL | MIC (Streptococcus pneumoniae [34]): 1.5 µg/mL | MIC (Streptococcus pneumoniae [35]): 0.025 µg/mL | fAUC/MIC (Streptococcus pneumoniae [36]): 86 | fAUC/MIC (Streptococcus pneumoniae [37]): 89 | fAUC/MIC (Streptococcus pneumoniae [38]): 79 | MIC (Streptococcus pneumoniae [39]): 0.75 µg/mL | MIC (Streptococcus pneumoniae [40]): 2 µg/mL | fAUC/MIC (Streptococcus pneumoniae [41]): 83 | half-life [42]: 7.85 h | MIC (Streptococcus pneumoniae [43]): 0.75 µg/mL

COc1c(N2C[C@@H]3CCCN[C@@H]3C2)c(F)cc2c(=O)c(C(=O)O)cn(C3CC3)c12 [MOXIFLOXACIN]
Activity [44]: 1.1 µg/mL | MIC (Streptococcus pneumoniae [45]): 0.25 µg/mL (≈ 0.623 µM) | MIC (Streptococcus pneumoniae [46]): 0.38 µg/mL | MIC (Streptococcus pneumoniae [47]): 0.25 µg/mL (≈ 0.623 µM) | Activity [48]: 0.6 µg/mL | MIC (Streptococcus pneumoniae [49]): 4 µg/mL (≈ 9.96 µM) | MIC (Streptococcus pneumoniae [50]): 0.125 µg/mL (≈ 0.311 µM) | MIC (Streptococcus pneumoniae [51]): 0.125 µg/mL (≈ 0.311 µM) | MIC (Streptococcus pneumoniae [52]): 4 µg/mL (≈ 9.96 µM) | Activity [53]: 0.45 µg/mL | MIC (Streptococcus pneumoniae [54]): 0.125 µg/mL (≈ 0.311 µM) | Activity [55]: 2.48 µg/mL | MIC (Streptococcus pneumoniae [56]): 0.125 µg/mL (≈ 0.311 µM) | MIC (Streptococcus pneumoniae [57]): 0.25 µg/mL (≈ 0.623 µM) | MIC (Streptococcus pneumoniae [33]): 0.025 µg/mL (≈ 0.0623 µM) | Activity [58]: 0.3 µg/mL | MIC (Streptococcus pneumoniae [35]): 0.025 µg/mL (≈ 0.0623 µM) | MIC (Staphylococcus aureus [59]): 0.19 µg/mL (≈ 0.473 µM) | MIC (Staphylococcus aureus [60]): 0.75 µg/mL (≈ 1.87 µM) | MIC (Streptococcus pneumoniae [61]): 0.125 µg/mL (≈ 0.311 µM) | MIC (Streptococcus pneumoniae [62]): 1.5 µg/mL

Reference: ChEMBL document CHEMBL1147116 (Antimicrob Agents Chemother, 2007)
